Measured values as given in ChEMBL document CHEMBL3991601, “The target landscape of clinical kinase drugs” (Science, 2017).
The source made the active and inactive calls. Cut-off read from the data, not from the text of the source, for most assays here: actives have a measured Kd and inactives only a lower limit.

What was measured:
[1] = molecular target: T1, Beta-adrenergic receptor kinase 1 (Homo sapiens, UniProt P25098)
T1 sequence (P25098 whole entry): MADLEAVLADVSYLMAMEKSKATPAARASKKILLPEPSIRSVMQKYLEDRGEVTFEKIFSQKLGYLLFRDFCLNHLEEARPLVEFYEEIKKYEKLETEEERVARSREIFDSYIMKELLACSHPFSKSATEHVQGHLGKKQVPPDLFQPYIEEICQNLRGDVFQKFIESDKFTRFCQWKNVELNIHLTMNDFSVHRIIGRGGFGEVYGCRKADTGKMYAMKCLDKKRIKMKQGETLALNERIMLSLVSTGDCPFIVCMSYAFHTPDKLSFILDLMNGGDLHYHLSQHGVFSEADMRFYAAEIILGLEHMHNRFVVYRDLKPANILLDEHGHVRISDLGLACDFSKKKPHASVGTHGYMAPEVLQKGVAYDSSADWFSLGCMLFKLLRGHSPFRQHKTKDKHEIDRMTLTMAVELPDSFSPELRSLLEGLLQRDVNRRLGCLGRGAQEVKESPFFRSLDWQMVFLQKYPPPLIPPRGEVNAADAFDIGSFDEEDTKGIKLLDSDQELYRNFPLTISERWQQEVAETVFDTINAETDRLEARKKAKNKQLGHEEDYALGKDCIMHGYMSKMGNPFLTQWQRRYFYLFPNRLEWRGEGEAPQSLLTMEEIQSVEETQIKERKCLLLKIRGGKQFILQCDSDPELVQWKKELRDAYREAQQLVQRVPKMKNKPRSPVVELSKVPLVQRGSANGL

[2] = molecular target: Bone morphogenetic protein receptor type-1B (Homo sapiens, UniProt O00238)
[3] = molecular target: Tyrosine-protein kinase BTK (Homo sapiens, UniProt Q06187)
[4] = molecular target: Cyclin-dependent kinase 2 (Homo sapiens, UniProt P24941)
[5] = molecular target: Cyclin-dependent kinase 5 (Homo sapiens, UniProt Q00535)
[6] = molecular target: Casein kinase II subunit alpha' (Homo sapiens, UniProt P19784)
[7] = molecular target: Epidermal growth factor receptor (Homo sapiens, UniProt P00533)
[8] = molecular target: Glycogen synthase kinase-3 beta (Homo sapiens, UniProt P49841)
[9] = molecular target: Mitogen-activated protein kinase kinase kinase kinase 1 (Homo sapiens, UniProt Q92918)
[10] = molecular target: Mitogen-activated protein kinase kinase kinase kinase 5 (Homo sapiens, UniProt Q9Y4K4)
[11] = molecular target: Mitogen-activated protein kinase 3 (Homo sapiens, UniProt P27361)
[12] = molecular target: Mitogen-activated protein kinase 9 (Homo sapiens, UniProt P45984)
[13] = molecular target: MAP kinase-activated protein kinase 2 (Homo sapiens, UniProt P49137)
[14] = molecular target: Myosin-14 (Homo sapiens, UniProt Q7Z406)
[15] = molecular target: Serine/threonine-protein kinase PAK 4 (Homo sapiens, UniProt O96013)
[16] = molecular target: T2, Rab-like protein 3 (Homo sapiens, UniProt Q5HYI8)
T2 sequence (Q5HYI8 whole entry): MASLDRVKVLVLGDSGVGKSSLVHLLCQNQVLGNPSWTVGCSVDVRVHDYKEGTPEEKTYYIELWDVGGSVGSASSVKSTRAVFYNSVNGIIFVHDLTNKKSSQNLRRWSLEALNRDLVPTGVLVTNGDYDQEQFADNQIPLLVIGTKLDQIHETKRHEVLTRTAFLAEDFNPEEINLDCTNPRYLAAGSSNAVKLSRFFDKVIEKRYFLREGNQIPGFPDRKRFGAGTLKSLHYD

[17] = molecular target: Dual specificity testis-specific protein kinase 1 (Homo sapiens, UniProt Q15569)
[18] = molecular target: TRAF2 and NCK-interacting protein kinase (Homo sapiens, UniProt Q9UKE5)
[19] = molecular target: T3, Non-receptor tyrosine-protein kinase TNK1 (Homo sapiens, UniProt Q13470)
T3 sequence (Q13470 whole entry): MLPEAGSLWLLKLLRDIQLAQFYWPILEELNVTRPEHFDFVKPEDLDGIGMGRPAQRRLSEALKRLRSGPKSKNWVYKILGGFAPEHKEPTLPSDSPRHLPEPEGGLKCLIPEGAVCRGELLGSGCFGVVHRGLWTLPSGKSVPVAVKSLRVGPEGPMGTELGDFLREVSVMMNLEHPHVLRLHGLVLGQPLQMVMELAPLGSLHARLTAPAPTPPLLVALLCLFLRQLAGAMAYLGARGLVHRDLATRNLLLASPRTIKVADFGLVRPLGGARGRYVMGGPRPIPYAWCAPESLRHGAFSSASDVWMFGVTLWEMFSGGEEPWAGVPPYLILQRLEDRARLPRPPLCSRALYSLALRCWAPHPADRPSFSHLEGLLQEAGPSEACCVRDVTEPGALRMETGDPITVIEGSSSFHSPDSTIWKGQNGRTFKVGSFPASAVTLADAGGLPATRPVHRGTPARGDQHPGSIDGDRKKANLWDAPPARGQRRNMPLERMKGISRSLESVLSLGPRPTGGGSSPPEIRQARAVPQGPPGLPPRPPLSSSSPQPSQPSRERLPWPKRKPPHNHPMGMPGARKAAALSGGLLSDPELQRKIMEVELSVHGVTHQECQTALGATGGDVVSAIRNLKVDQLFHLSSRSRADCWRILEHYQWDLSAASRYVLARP
Note: in the data inactive means no Kd found up to 30 µM.

Chain of MAP kinase-activated protein kinase 2 (P49137 whole entry): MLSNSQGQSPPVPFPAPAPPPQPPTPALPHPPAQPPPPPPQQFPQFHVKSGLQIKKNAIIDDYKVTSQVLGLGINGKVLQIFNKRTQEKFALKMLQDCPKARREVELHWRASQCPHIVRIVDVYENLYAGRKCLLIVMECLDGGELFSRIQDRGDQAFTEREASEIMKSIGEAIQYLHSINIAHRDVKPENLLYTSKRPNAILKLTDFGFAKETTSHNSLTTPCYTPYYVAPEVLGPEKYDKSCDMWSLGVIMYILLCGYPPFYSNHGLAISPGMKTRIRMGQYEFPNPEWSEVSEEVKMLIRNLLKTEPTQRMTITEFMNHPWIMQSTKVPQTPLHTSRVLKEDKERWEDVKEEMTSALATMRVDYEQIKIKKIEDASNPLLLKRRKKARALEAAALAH
Chain of Mitogen-activated protein kinase kinase kinase kinase 5 (Q9Y4K4 whole entry): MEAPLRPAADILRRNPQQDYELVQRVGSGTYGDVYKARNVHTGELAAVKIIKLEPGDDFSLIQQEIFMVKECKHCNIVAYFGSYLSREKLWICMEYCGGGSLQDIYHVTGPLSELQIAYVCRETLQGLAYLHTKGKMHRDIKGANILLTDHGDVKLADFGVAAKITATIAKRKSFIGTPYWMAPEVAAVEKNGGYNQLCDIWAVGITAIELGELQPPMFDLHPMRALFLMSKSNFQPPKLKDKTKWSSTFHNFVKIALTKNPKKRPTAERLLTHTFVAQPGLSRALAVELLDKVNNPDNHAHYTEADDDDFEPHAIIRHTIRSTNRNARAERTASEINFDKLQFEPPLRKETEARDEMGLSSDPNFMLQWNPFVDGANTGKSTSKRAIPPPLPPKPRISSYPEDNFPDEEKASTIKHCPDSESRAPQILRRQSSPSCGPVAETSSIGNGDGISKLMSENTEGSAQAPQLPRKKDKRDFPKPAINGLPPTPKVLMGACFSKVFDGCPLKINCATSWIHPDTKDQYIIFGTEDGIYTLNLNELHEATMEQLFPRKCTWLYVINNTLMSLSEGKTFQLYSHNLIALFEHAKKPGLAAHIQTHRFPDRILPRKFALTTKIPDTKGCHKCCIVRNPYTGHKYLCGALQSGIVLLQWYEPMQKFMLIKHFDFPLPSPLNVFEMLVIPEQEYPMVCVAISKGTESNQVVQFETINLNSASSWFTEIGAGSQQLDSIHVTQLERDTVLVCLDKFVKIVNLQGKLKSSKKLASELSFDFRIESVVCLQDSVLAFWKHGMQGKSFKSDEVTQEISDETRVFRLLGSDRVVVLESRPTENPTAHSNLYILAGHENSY
Chain of Casein kinase II subunit alpha' (P19784 whole entry): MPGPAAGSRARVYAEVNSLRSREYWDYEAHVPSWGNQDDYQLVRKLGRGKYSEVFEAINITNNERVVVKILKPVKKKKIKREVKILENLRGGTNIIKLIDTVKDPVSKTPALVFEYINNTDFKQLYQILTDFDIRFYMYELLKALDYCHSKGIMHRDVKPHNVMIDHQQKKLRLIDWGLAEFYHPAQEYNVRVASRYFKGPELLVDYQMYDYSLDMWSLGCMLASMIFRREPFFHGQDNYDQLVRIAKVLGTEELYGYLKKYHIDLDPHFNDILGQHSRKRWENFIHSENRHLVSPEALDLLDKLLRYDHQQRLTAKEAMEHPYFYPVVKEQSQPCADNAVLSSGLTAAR
Chain of Epidermal growth factor receptor (P00533 whole entry): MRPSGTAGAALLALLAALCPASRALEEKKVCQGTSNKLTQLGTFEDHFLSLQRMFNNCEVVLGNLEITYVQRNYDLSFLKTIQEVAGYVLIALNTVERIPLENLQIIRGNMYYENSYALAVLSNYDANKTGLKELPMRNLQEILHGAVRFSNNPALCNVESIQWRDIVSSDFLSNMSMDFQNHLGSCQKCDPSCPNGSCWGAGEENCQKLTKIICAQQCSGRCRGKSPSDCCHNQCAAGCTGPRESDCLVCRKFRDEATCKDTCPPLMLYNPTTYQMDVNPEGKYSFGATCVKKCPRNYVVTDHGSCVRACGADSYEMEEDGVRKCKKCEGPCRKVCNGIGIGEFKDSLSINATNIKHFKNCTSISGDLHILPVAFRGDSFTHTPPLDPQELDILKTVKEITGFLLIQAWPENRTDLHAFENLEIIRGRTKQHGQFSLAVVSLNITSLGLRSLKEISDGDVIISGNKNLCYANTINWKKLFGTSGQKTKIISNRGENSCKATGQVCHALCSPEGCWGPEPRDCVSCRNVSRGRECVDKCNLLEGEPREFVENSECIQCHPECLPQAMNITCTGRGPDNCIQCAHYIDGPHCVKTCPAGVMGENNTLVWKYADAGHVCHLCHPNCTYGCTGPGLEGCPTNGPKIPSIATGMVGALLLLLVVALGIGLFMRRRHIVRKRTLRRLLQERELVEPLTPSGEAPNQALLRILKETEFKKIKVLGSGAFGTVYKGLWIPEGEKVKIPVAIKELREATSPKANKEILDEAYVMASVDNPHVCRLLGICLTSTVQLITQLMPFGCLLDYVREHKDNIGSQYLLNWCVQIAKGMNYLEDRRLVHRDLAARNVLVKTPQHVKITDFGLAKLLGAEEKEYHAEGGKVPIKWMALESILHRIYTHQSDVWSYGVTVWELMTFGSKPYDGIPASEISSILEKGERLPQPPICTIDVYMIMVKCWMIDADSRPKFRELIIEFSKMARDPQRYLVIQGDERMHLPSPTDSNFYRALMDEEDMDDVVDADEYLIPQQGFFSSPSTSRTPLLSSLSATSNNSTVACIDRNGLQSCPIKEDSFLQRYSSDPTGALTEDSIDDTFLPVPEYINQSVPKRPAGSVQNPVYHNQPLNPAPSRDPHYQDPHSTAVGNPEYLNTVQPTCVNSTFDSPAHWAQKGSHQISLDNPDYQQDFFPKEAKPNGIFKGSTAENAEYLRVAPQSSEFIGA
Chain of Mitogen-activated protein kinase 9 (P45984 whole entry): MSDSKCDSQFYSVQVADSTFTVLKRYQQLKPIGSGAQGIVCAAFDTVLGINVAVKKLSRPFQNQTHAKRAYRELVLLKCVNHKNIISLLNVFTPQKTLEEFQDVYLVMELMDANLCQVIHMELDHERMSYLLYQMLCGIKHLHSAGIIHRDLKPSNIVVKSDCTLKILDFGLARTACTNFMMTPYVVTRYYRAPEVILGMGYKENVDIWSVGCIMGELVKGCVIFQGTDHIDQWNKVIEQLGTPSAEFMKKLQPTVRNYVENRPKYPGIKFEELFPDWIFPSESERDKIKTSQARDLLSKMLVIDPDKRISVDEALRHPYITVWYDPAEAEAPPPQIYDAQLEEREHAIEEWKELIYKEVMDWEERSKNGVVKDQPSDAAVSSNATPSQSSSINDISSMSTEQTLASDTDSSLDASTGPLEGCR
Chain of Dual specificity testis-specific protein kinase 1 (Q15569 whole entry): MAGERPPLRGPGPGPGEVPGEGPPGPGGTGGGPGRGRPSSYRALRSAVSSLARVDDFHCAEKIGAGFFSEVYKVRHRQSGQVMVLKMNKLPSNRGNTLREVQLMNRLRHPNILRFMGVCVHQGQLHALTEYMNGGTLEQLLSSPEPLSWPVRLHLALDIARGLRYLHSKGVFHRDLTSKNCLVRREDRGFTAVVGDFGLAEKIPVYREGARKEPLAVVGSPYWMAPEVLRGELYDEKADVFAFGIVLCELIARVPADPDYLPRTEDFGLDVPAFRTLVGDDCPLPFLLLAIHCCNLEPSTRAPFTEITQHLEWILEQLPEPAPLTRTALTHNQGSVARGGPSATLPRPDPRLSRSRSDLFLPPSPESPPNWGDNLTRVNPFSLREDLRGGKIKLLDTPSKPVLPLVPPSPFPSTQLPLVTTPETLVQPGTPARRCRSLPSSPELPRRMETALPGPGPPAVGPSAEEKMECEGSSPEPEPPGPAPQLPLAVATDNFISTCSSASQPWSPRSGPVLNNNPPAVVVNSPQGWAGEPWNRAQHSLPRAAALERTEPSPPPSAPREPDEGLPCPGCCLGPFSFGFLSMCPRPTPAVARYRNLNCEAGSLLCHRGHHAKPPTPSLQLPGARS
Chain of Cyclin-dependent kinase 5 (Q00535 whole entry): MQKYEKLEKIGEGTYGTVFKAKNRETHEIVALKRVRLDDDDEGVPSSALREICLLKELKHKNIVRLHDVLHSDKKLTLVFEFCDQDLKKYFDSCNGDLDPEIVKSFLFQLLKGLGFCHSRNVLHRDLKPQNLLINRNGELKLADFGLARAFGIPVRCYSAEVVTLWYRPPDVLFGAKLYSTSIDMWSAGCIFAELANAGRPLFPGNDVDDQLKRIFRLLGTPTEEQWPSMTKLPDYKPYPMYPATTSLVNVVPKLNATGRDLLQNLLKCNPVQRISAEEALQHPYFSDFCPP
Chain of Serine/threonine-protein kinase PAK 4 (O96013 whole entry): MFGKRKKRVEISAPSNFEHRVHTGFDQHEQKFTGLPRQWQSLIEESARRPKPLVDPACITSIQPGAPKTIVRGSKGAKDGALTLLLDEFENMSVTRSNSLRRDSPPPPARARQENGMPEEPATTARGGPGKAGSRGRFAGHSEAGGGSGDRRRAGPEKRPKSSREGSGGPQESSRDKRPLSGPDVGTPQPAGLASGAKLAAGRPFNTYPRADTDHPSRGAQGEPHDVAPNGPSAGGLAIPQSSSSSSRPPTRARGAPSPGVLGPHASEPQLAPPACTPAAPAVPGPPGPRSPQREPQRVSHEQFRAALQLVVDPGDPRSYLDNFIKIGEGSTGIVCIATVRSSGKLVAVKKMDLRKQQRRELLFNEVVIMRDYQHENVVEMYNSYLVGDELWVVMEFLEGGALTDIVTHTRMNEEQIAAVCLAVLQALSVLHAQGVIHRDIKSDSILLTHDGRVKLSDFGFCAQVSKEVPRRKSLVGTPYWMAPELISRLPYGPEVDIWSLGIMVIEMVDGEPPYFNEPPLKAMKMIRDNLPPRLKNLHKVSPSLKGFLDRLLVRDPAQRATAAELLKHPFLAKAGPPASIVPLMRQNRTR

Kd [1] | Kd [2] | Kd [3] | Kd [4] | Kd [5] | Kd [6] | Kd [7] | Kd [8] | Kd [9] | Kd [10] | Kd [11] | Kd [12] | Kd [13] | Kd [14] | Kd [15] | Kd [16] | Kd [17] | Kd [18] | Kd [19] | Compound
> 30 µM (inactive) | > 30 µM (inactive) | 1.62 µM (active) | > 30 µM (inactive) | > 30 µM (inactive) | > 30 µM (inactive) | 0.038 µM (active) | > 30 µM (inactive) | > 30 µM (inactive) | 0.908 µM (active) | > 30 µM (inactive) | > 30 µM (inactive) | 1.52 µM (active) | > 30 µM (inactive) | > 30 µM (inactive) | > 30 µM (inactive) | > 30 µM (inactive) | > 30 µM (inactive) | > 30 µM (inactive) | COc1cc2c(Nc3ccc(Cl)c(Cl)c3F)ncnc2cc1OC[C@@H]1C[C@@H]2CN(C)C[C@@H]2C1 [TESEVATINIB]
> 30 µM (inactive) | > 30 µM (inactive) | > 30 µM (inactive) | > 30 µM (inactive) | > 30 µM (inactive) | > 30 µM (inactive) | > 30 µM (inactive) | > 30 µM (inactive) | > 30 µM (inactive) | > 30 µM (inactive) | > 30 µM (inactive) | > 30 µM (inactive) | > 30 µM (inactive) | > 30 µM (inactive) | > 30 µM (inactive) | > 30 µM (inactive) | > 30 µM (inactive) | > 30 µM (inactive) | > 30 µM (inactive) | C[C@@H](NC(=O)c1ncnc(N)c1Cl)c1ncc(C(=O)Nc2cc(C(F)(F)F)c(Cl)cn2)s1 [TOVORAFENIB]

Second part, the compound before the results:

Compound | Kd [1] | Kd [2] | Kd [3] | Kd [4] | Kd [5] | Kd [6] | Kd [7] | Kd [8] | Kd [9] | Kd [10] | Kd [11] | Kd [12] | Kd [13] | Kd [14] | Kd [15] | Kd [16] | Kd [17] | Kd [18] | Kd [19]
O=C(Cc1ccc(-c2ccc(OCCN3CCOCC3)cc2)cn1)NCc1ccccc1 [TIRBANIBULIN] | > 30 µM (inactive) | > 30 µM (inactive) | > 30 µM (inactive) | > 30 µM (inactive) | > 30 µM (inactive) | > 30 µM (inactive) | > 30 µM (inactive) | > 30 µM (inactive) | > 30 µM (inactive) | > 30 µM (inactive) | > 30 µM (inactive) | > 30 µM (inactive) | > 30 µM (inactive) | > 30 µM (inactive) | > 30 µM (inactive) | > 30 µM (inactive) | > 30 µM (inactive) | > 30 µM (inactive) | > 30 µM (inactive)
O=C1NC(=O)[C@@H](c2cn3c4c(cccc24)CCC3)[C@@H]1c1c[nH]c2ccccc12 [TIVANTINIB] | > 30 µM (inactive) | > 30 µM (inactive) | > 30 µM (inactive) | > 30 µM (inactive) | > 30 µM (inactive) | > 30 µM (inactive) | > 30 µM (inactive) | > 30 µM (inactive) | > 30 µM (inactive) | > 30 µM (inactive) | > 30 µM (inactive) | > 30 µM (inactive) | > 30 µM (inactive) | > 30 µM (inactive) | > 30 µM (inactive) | > 30 µM (inactive) | > 30 µM (inactive) | > 30 µM (inactive) | > 30 µM (inactive)
Cc1cc(Nc2ncnc3ccc(NC4=NC(C)(C)CO4)cc23)ccc1Oc1ccn2ncnc2c1 [TUCATINIB] | > 30 µM (inactive) | > 30 µM (inactive) | > 30 µM (inactive) | > 30 µM (inactive) | > 30 µM (inactive) | > 30 µM (inactive) | 2.53 µM (active) | > 30 µM (inactive) | > 30 µM (inactive) | > 30 µM (inactive) | > 30 µM (inactive) | > 30 µM (inactive) | > 30 µM (inactive) | 0.188 µM | > 30 µM (inactive) | > 30 µM (inactive) | > 30 µM (inactive) | > 30 µM (inactive) | > 30 µM (inactive)
